Here are results for 8 compounds from PubChem BioAssay (NCI).

SMILES strings stand for the structures.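 Step 1: Grow cells in 96-well plates. Step 2: Expose to compound for 48 hours at 5 concentrations. Step 3: Interpolate endpoints linearly; if unreached, use highest concentration. The concentration for full growth arrest is given as TGI.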

Some test systems named below: DLD-1 colon; OVCAR-5 ovarian; COLO 205 colon; IGROV1 ovarian; HOP-62 NSCLC; UO-31 renal; HT29 colon; SK-MEL-28 melanoma; U251 CNS; CCRF-CEM leukemia; HCT-116 colon; HOP-92 NSCLC; SF-539 CNS; ACHN renal; SF-268 CNS; SN12C renal; EKVX NSCLC; NCI/ADR-RES ovarian; DU-145 prostate; HCC-2998 colon.
What all share (assay): NCI tumour cell line growth inhibition, 48 h

Turning to `CSc1nc2c(c(O)c(C)c(=O)n2C2OCC(OC(C)=O)C(OC(C)=O)C2OC(C)=O)c(=O)n1C` (stereo unspecified), the TGI in the assay with DLD-1 colon, in the assay on OVCAR-5 ovarian, with COLO 205 colon, in the assay with IGROV1 ovarian, in the assay on HOP-62 NSCLC and with UO-31 renal was more than 100 µM each time. The TGI in the assay with HT29 colon, with SK-MEL-28 melanoma, in the assay with U251 CNS, with CCRF-CEM leukemia, in the assay on HCT-116 colon and in the assay on HOP-92 NSCLC was more than 100 µM in each case. In addition, the TGI in the assay on SF-539 CNS, in the assay with ACHN renal, with SF-268 CNS and in the assay with SN12C renal was more than 100 µM throughout.
As to `C[C@H](CCC(=O)O)[C@H]1CC[C@H]2[C@@H]3[C@H](O)C[C@@H]4C[C@H](O)CC[C@]4(C)[C@H]3CC[C@]12C`, the TGI with EKVX NSCLC is more than 100 µM; in the assay with OVCAR-5 ovarian, more than 100 µM; in the assay with COLO 205 colon, 45.7 µM; with IGROV1 ovarian it was more than 100 µM; with NCI/ADR-RES ovarian, more than 100 µM; with HOP-62 NSCLC, more than 100 µM. In addition, the TGI is 58.5 µM with UO-31 renal; 87.4 µM in the assay with HT29 colon; more than 100 µM in the assay with SK-MEL-28 melanoma; more than 100 µM in the assay on U251 CNS; more than 100 µM with CCRF-CEM leukemia; more than 100 µM in the assay with HCT-116 colon. Further, the TGI in the assay on HOP-92 NSCLC is 91.1 µM; with DU-145 prostate, more than 100 µM; with SF-539 CNS, 62.1 µM; with ACHN renal, more than 100 µM; in the assay with HCC-2998 colon, 79.9 µM; with SF-268 CNS, more than 100 µM. For the same compound, in the assay on SN12C renal, the TGI was more than 100 µM.
For the compound `C[N+](C)(C)CC(=O)N/N=C(/CC1OC(=O)c2ccccc21)c1ccccc1O` (stereo unspecified), the TGI in the assay on EKVX NSCLC is more than 100 µM; with OVCAR-5 ovarian, more than 100 µM; with COLO 205 colon, more than 100 µM; in the assay with IGROV1 ovarian, more than 100 µM; with NCI/ADR-RES ovarian, 55.4 µM; in the assay on HOP-62 NSCLC, more than 100 µM. Further, the TGI is 56.1 µM with UO-31 renal; more than 100 µM with HT29 colon; more than 100 µM in the assay with SK-MEL-28 melanoma; 72.3 µM in the assay with U251 CNS; 49.3 µM in the assay on CCRF-CEM leukemia; more than 100 µM in the assay with HCT-116 colon. Further, the TGI is 87.6 µM in the assay with HOP-92 NSCLC; more than 100 µM with DU-145 prostate; 62.3 µM with SF-539 CNS; 66.4 µM with ACHN renal; 50.9 µM in the assay with HCC-2998 colon; more than 100 µM with SF-268 CNS. The TGI in the assay with SN12C renal is more than 100 µM.
Consider `Cn1c(=O)cc(NCCc2ccccc2)[nH]c1=O`, for which the TGI in the assay on EKVX NSCLC was more than 100 µM; in the assay with OVCAR-5 ovarian it was more than 100 µM; in the assay with COLO 205 colon, more than 100 µM; with IGROV1 ovarian it was more than 100 µM; in the assay with NCI/ADR-RES ovarian, 98 µM; in the assay with HOP-62 NSCLC, more than 100 µM. The TGI is more than 100 µM in the assay on UO-31 renal; 78.1 µM in the assay on HT29 colon; more than 100 µM with SK-MEL-28 melanoma; more than 100 µM in the assay with U251 CNS; more than 100 µM in the assay on CCRF-CEM leukemia; more than 100 µM with HCT-116 colon. For the same compound, the TGI in the assay on HOP-92 NSCLC, with DU-145 prostate, in the assay with SF-539 CNS, in the assay with ACHN renal, in the assay on HCC-2998 colon and with SF-268 CNS was more than 100 µM in each case. Further, the TGI in the assay on SN12C renal was more than 100 µM.
On to `CC1(C)N=C(C(=O)c2ccccc2)N(O)C1(O)c1ccccc1` (stereo unspecified), for which the TGI in the assay on EKVX NSCLC, in the assay with OVCAR-5 ovarian, with COLO 205 colon, in the assay on IGROV1 ovarian, in the assay with NCI/ADR-RES ovarian and in the assay with HOP-62 NSCLC was more than 100 µM throughout. Also, the TGI in the assay with UO-31 renal, with HT29 colon, in the assay with SK-MEL-28 melanoma, in the assay with U251 CNS, in the assay on CCRF-CEM leukemia and in the assay on HCT-116 colon was more than 100 µM throughout. The TGI in the assay on HOP-92 NSCLC, with DU-145 prostate, in the assay with SF-539 CNS, with ACHN renal, in the assay with HCC-2998 colon and in the assay on SF-268 CNS was more than 100 µM throughout. Besides, in the assay on SN12C renal, the TGI was more than 100 µM.
Take `COc1cc2c(c(OC)c1OC)C(=O)[C@H](Br)[C@H]2NC(=O)NCCCl`: the TGI in the assay with EKVX NSCLC, with OVCAR-5 ovarian, in the assay on COLO 205 colon, in the assay on IGROV1 ovarian, with NCI/ADR-RES ovarian and with HOP-62 NSCLC was more than 100 µM throughout. Also, the TGI in the assay with UO-31 renal, with HT29 colon, in the assay with SK-MEL-28 melanoma, in the assay with U251 CNS, with CCRF-CEM leukemia and with HCT-116 colon was more than 100 µM in each case. Also, the TGI with HOP-92 NSCLC, in the assay on DU-145 prostate, with SF-539 CNS, in the assay with ACHN renal, with HCC-2998 colon and in the assay on SF-268 CNS was more than 100 µM throughout. This compound yielded a TGI in the assay with SN12C renal of more than 100 µM.
With `CCOC(=O)CCC(NC(=O)c1ccc(Nc2cnc3ccc(C(F)(F)F)cc3n2)cc1)C(=O)OCC` (stereo unspecified), the TGI with EKVX NSCLC is more than 89.6 µM; with OVCAR-5 ovarian, more than 100 µM; with COLO 205 colon, more than 100 µM; in the assay with IGROV1 ovarian, more than 47.2 µM; with NCI/ADR-RES ovarian, 52.7 µM; in the assay on HOP-62 NSCLC it was more than 100 µM. The TGI in the assay on UO-31 renal, in the assay with HT29 colon, with SK-MEL-28 melanoma, in the assay with U251 CNS, in the assay on CCRF-CEM leukemia and in the assay with HCT-116 colon was more than 100 µM throughout. Besides, the TGI with HOP-92 NSCLC was more than 43.1 µM; in the assay with DU-145 prostate it was more than 100 µM; in the assay with SF-539 CNS, 39 µM; in the assay on ACHN renal, more than 81.2 µM; in the assay with HCC-2998 colon, more than 100 µM; in the assay on SF-268 CNS it was more than 100 µM. The compound further gave a TGI in the assay with SN12C renal of more than 100 µM.
In the case of `Cc1nc2c(n1CCN(C)C)C(=O)c1ccccc1C2=O`, the TGI stood at 26.9 µM with DLD-1 colon; 32.2 µM with EKVX NSCLC; 16.5 µM in the assay on COLO 205 colon; 26.5 µM in the assay with IGROV1 ovarian; 78.7 µM in the assay on HOP-62 NSCLC; 49 µM with UO-31 renal. Also, the TGI is 65.1 µM with HT29 colon; more than 100 µM in the assay with SK-MEL-28 melanoma; 32.2 µM with U251 CNS; 47.1 µM in the assay on CCRF-CEM leukemia; 33 µM with HCT-116 colon; 46.3 µM in the assay on SF-539 CNS. The TGI in the assay with ACHN renal amounted to 31.5 µM; in the assay on HCC-2998 colon, 47.7 µM; in the assay on SF-268 CNS, 72 µM; in the assay on SN12C renal it was 35.8 µM.
